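Dose response: 5 concentrations. Exposure: 48 h. Format: 96-well plates. Endpoint: linear interpolation; highest concentration if not reached. Abbreviation: GI50, concentration required for 50% inhibition of growth. At the TGI there is no net growth.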
How the values were obtained:
Assay in all cases: NCI tumour cell line growth inhibition, 48 h
[1] = tested on: HCT-116 colon
[2] = tested on: TK-10 renal
[3] = tested on: HOP-62 NSCLC
[4] = tested on: K-562 leukemia
[5] = tested on: UACC-257 melanoma
[6] = tested on: MDA-MB-435
[7] = tested on: HCC-2998 colon
[8] = tested on: MALME-3M melanoma
[9] = tested on: BT-549 breast
[10] = tested on: SK-MEL-5 melanoma
[11] = tested on: MDA-MB-231 breast
[12] = tested on: OVCAR-8 ovarian
[13] = tested on: NCI/ADR-RES ovarian
[14] = tested on: RXF 393 renal
[15] = tested on: RPMI-8226 leukemia
[16] = tested on: IGROV1 ovarian
[17] = tested on: SF-268 CNS
[18] = tested on: HCT-15 colon
[19] = tested on: HL-60(TB) leukemia
[20] = tested on: U251 CNS
[21] = tested on: OVCAR-5 ovarian
[22] = tested on: A498 renal
[23] = tested on: ACHN renal
[24] = tested on: KM12 colon
[25] = tested on: SK-MEL-2 melanoma
[26] = tested on: DU-145 prostate
[27] = tested on: MOLT-4 leukemia
[28] = tested on: SK-OV-3 ovarian
[29] = tested on: HOP-92 NSCLC
[30] = tested on: NCI-H522 lung
[31] = tested on: SNB-19 CNS
[32] = tested on: SK-MEL-28 melanoma
[33] = tested on: SN12C renal
[34] = tested on: SW-620 colon
[35] = tested on: COLO 205 colon
[36] = tested on: EKVX NSCLC
[37] = tested on: 786-0 renal
[38] = tested on: A549 NSCLC
[39] = tested on: T-47D breast
[40] = tested on: HT29 colon
[41] = tested on: MCF7 breast
[42] = tested on: UACC-62 melanoma
[43] = tested on: CCRF-CEM leukemia
[44] = tested on: CAKI-1 renal
[45] = tested on: UO-31 renal
[46] = tested on: OVCAR-3 ovarian
[47] = tested on: NCI-H460 lung
[48] = tested on: OVCAR-4 ovarian
[49] = tested on: NCI-H226 lung
[50] = tested on: SNB-75 CNS
[51] = tested on: NCI-H23 lung
[52] = tested on: HS 578T breast
[53] = tested on: LOX IMVI melanoma
[54] = tested on: SR leukemia
[55] = tested on: M14 melanoma
[56] = tested on: PC-3 prostate
[57] = tested on: SF-539 CNS
[58] = tested on: SF-295 CNS

## C=CC(=O)N1CN(C(=O)C=C)CN(C(=O)C=C)C1
[1]
  GI50: 1.77 µM
  TGI: 3.33 µM
[2]
  GI50: 2.36 µM
  TGI: 5.7 µM
[3]
  GI50: 12.3 µM
  TGI: 48.1 µM
[4]
  GI50: 3.01 µM
  TGI: 9.83 µM
[5]
  GI50: 1.82 µM
  TGI: 4.59 µM
[6]
  GI50: 2.96 µM
  TGI: 10.7 µM
[7]
  GI50: 10.2 µM
  TGI: 25.3 µM
[8]
  GI50: 2.81 µM
  TGI: 7.2 µM
[9]
  GI50: 6.68 µM
  TGI: 20.7 µM
[10]
  GI50: 9.61 µM
  TGI: 24.7 µM
[11]
  GI50: 11.5 µM
  TGI: 35.6 µM
[12]
  GI50: 2.93 µM
  TGI: > 100 µM
[13]
  GI50: 6.81 µM
  TGI: > 100 µM
[14]
  GI50: 1.33 µM
  TGI: 2.83 µM
[15]
  GI50: 2.29 µM
  TGI: 6.76 µM
[16]
  GI50: 3.34 µM
  TGI: 11.3 µM
[17]
  GI50: 11 µM
  TGI: 50.6 µM
[18]
  GI50: 2.01 µM
  TGI: 4.68 µM
[19]
  GI50: 3.37 µM
  TGI: 10.3 µM
[20]
  GI50: 4.34 µM
  TGI: 16.5 µM
[21]
  GI50: 10.6 µM
  TGI: 24.7 µM
[22]
  GI50: 15.3 µM
  TGI: 32.4 µM
[23]
  GI50: 1.89 µM
  TGI: 4.49 µM
[24]
  GI50: 18.5 µM
  TGI: 38.6 µM
[25]
  GI50: 5.46 µM
  TGI: 47.4 µM
[26]
  GI50: 10.7 µM
  TGI: 29 µM
[27]
  GI50: 2.71 µM
  TGI: 8.05 µM
[28]
  GI50: 26.8 µM
  TGI: > 100 µM
[29]
  GI50: 3.56 µM
  TGI: 13 µM
[30]
  GI50: 1.65 µM
  TGI: 3.51 µM
[31]
  GI50: 33.1 µM
  TGI: > 100 µM
[32]
  GI50: 4.02 µM
  TGI: 16.2 µM
[33]
  GI50: 20.7 µM
  TGI: 51.6 µM
[34]
  GI50: 2.16 µM
  TGI: 5.16 µM
[35]
  GI50: 1.7 µM
  TGI: 3.59 µM
[36]
  GI50: 9.02 µM
  TGI: 26.2 µM
[37]
  GI50: 7.15 µM
  TGI: 24.7 µM
[38]
  GI50: 21.2 µM
  TGI: 81.7 µM
[39]
  GI50: 2.32 µM
  TGI: 12.8 µM
[40]
  GI50: 3.26 µM
  TGI: 10.4 µM
[41]
  GI50: 3.65 µM
  TGI: 15.5 µM
[42]
  GI50: 3.49 µM
  TGI: 12 µM
[43]
  GI50: 2.82 µM
  TGI: 9.78 µM
[44]
  GI50: 1.63 µM
  TGI: 3.7 µM
[45]
  GI50: 2.19 µM
  TGI: 8.53 µM
[46]
  GI50: 2.57 µM
  TGI: 7.99 µM
[47]
  GI50: 21.7 µM
  TGI: 50.4 µM
[48]
  GI50: 5.06 µM
  TGI: 21.2 µM
[49]
  GI50: 5.87 µM
  TGI: > 100 µM
[50]
  GI50: 8.9 µM
  TGI: > 100 µM
[51]
  GI50: 2.77 µM
  TGI: 9.15 µM
[52]
  GI50: > 100 µM
  TGI: > 100 µM
[53]
  GI50: 1.72 µM
  TGI: 5.78 µM
[54]
  GI50: 2.46 µM
  TGI: 6.82 µM
[55]
  GI50: 2.85 µM
  TGI: 7.86 µM
[56]
  GI50: 9.16 µM
  TGI: 53.9 µM
[57]
  GI50: 2.98 µM
  TGI: 48.3 µM

## Nc1cc2c(cc1Br)[nH]c(=O)c1ccccc12
[1]
  GI50: 2.91 µM
  TGI: 25.5 µM
[2]
  GI50: 4.27 µM
  TGI: 32.7 µM
[3]
  GI50: 3.71 µM
  TGI: 13.3 µM
[4]
  GI50: 5.78 µM
  TGI: > 100 µM
[5]
  GI50: 4.13 µM
  TGI: 17.1 µM
[6]
  GI50: 1.91 µM
  TGI: 3.57 µM
[7]
  GI50: 5.5 µM
  TGI: 17.1 µM
[8]
  GI50: 2.17 µM
  TGI: 4.78 µM
[9]
  GI50: 12.3 µM
  TGI: 31.4 µM
[10]
  GI50: 1.46 µM
  TGI: 2.79 µM
[11]
  GI50: 3.37 µM
  TGI: 54.9 µM
[12]
  GI50: 3.37 µM
  TGI: > 100 µM
[13]
  GI50: 9.25 µM
  TGI: 35.1 µM
[14]
  GI50: 4.3 µM
  TGI: 21.7 µM
[15]
  GI50: 5.19 µM
  TGI: 42.3 µM
[16]
  GI50: 3.61 µM
  TGI: 23.1 µM
[17]
  GI50: 5.9 µM
  TGI: 44.9 µM
[18]
  GI50: 4.79 µM
  TGI: 20.8 µM
[19]
  GI50: 10.8 µM
  TGI: 54.3 µM
[21]
  GI50: 6.91 µM
  TGI: 41.1 µM
[22]
  GI50: 3.91 µM
  TGI: 29.8 µM
[23]
  GI50: 3.09 µM
  TGI: 20.1 µM
[24]
  GI50: 3.4 µM
  TGI: 11.2 µM
[25]
  GI50: 3.44 µM
  TGI: 11.2 µM
[26]
  GI50: 2.14 µM
  TGI: 4.76 µM
[27]
  GI50: 4.03 µM
  TGI: 43 µM
[28]
  GI50: 10.1 µM
  TGI: 54.1 µM
[29]
  GI50: 3.81 µM
  TGI: 41.8 µM
[30]
  GI50: 5.47 µM
  TGI: 19.8 µM
[31]
  GI50: 5.25 µM
  TGI: 20.2 µM
[32]
  GI50: 4.25 µM
  TGI: 15.5 µM
[33]
  GI50: 2.68 µM
  TGI: 13.8 µM
[34]
  GI50: 7.73 µM
  TGI: 29 µM
[35]
  GI50: 3.34 µM
[58]
  GI50: 10.2 µM
  TGI: 38.4 µM
[36]
  GI50: 4.18 µM
  TGI: 35.1 µM
[37]
  GI50: 6.16 µM
  TGI: > 100 µM
[38]
  GI50: 2.91 µM
  TGI: 11.4 µM
[39]
  GI50: 4.22 µM
  TGI: 55.8 µM
[40]
  GI50: 3.46 µM
  TGI: 10.8 µM
[41]
  GI50: 1.83 µM
  TGI: 11.4 µM
[42]
  GI50: 6.02 µM
  TGI: 20.1 µM
[43]
  GI50: 6.82 µM
  TGI: 59.5 µM
[44]
  GI50: 5.39 µM
  TGI: 53.4 µM
[45]
  GI50: 2.73 µM
  TGI: 18.5 µM
[46]
  GI50: 2.14 µM
  TGI: 6.45 µM
[47]
  GI50: 3.66 µM
  TGI: 18.5 µM
[48]
  GI50: 2.55 µM
  TGI: 38.5 µM
[49]
  GI50: 5.15 µM
  TGI: 27.5 µM
[50]
  GI50: 2.66 µM
  TGI: 11.9 µM
[51]
  GI50: 1.8 µM
  TGI: 5.29 µM
[52]
  GI50: 3.5 µM
  TGI: 28.9 µM
[53]
  GI50: 1.8 µM
  TGI: 6.23 µM
[54]
  GI50: 5.07 µM
  TGI: 47.2 µM
[55]
  GI50: 2.92 µM
  TGI: 10 µM
[56]
  GI50: 4.14 µM
  TGI: > 100 µM
[57]
  GI50: 15.1 µM
  TGI: 49.3 µM

— PubChem BioAssay (NCI)
